The text below walks through data of patent US11744830B2, “Ameliorative agent for cytokine release syndrome and so on” (TORII PHARMACEUTICAL CO., LTD., priority 2018, dated 2023).

The test system of experiment [1] is IL-1β production in CD14^+ cells. Kind of experiment: LPS stimulation-induced IL-1β production in CD14^+ cells. The class given is cell-based, human. The settings on record: for IC50: Homo sapiens, 72 h, LPS 500 ng/mL, 3 days. How it is done:
Cryopreserved PBMCs were quickly thawed in a 37° C. thermostat and added to a tube containing medium. After centrifugation (at room temperature at 300 g for 10 minutes) to remove the supernatant, the cells were suspended again in the medium, followed by counting the number of viable cells. The cell suspension was centrifuged (at room temperature at 300 g for 10 minutes) to remove the supernatant, followed by addition of MACS Buffer to suspend the cells, to which Human CD14 MicroBeads were further added. After being allowed to stand on ice for 15 minutes, the cell suspension was diluted with MACS Buffer and centrifuged (at room temperature at 300 g for 10 minutes) to remove the supernatant. MACS Buffer was added to the tube, and the cells were suspended and then applied to a separatory column to separate CD14^+ cells. The CD14^+ cell fraction was diluted with the medium and then centrifuged (at room temperature at 300 g for 10 minutes). The supernatant was removed and the cells were suspended in the medium (1 mL), followed by counting the number of viable cells. The cell suspension was adjusted with the medium to 2.4×10^5 or 3×10^5 cells/mL and seeded in a 96-well plate (2.4×10^4 cells/well), which was then allowed to stand in a CO2 incubator for 1 to 2 hours.
The culture supernatants collected in 1.2.10 were quantified for IL-1β using Human IL-1β DuoSet ELISA.

The subject of experiment [2] is TNF-α production from CD8^+ T cells. Kind of experiment: T-cell stimulation bead-induced TNF-α production in CD8^+ T cells. The settings on record: CD3/CD28 stimulation, 3 days. The class given is cell-based, human. How it is done: (§1) Cryopreserved PBMCs were quickly thawed in a 37° C. thermostat and added to a tube containing medium. After centrifugation (at room temperature at 300 g for 10 minutes) to remove the supernatant, the cells were suspended in the medium, a portion of which was then mixed with a trypan blue solution to count the number of viable cells. The cell suspension was centrifuged (at room temperature at 300 g for 10 minutes) to remove the supernatant, followed by addition of MACS Buffer in a volume of 80 μL per 1×10^7 cells to suspend the cells, to which Human CD8 MicroBeads (20 μL) were further added. After being allowed to stand on ice for 15 minutes, the cell suspension was diluted with MACS Buffer (2 mL) and centrifuged (at room temperature at 300 g for 10 minutes) to remove the supernatant.
(§2) MACS Buffer (500 μL) was added to the tube, and the cells were suspended and then applied to a separatory column to separate CD8^+ cells. The CD8^+ cell fraction was diluted to 15 mL with the medium and then centrifuged (at room temperature at 300 g for 10 minutes). The supernatant was removed and the cells were suspended in the medium (1 mL), followed by counting the number of viable cells. The cell suspension adjusted with the medium to 1×10^6 cells/mL was seeded in a 96-well plate in a volume of 100 μL/well (1×10^5 cells/well) and allowed to stand in a CO2 incubator for 1 to 2 hours.
The culture supernatants collected in 1.2.1 were quantified for TNF-α using Human TNF-α DuoSet ELISA.

In experiment [3] the test system is IL-18 production from LPS-pretreated CD14^+ cells. Kind of experiment: ATP stimulation-induced IL-18 production from LPS-pretreated CD14^+ cells. The format is cell-based, human. The settings on record: for IC50: Homo sapiens, CD14^+ cells (LPS-pretreated), ATP 5 mM. How it is done:
as §1, with “suspended again” for “suspended”, “followed by counting” for “a portion of which was then mixed with a trypan blue solution to count”, “Buffer” for “Buffer in a volume of 80 μL per 1×10^7 cells”, “CD14” for “CD8”, “MicroBeads” for “MicroBeads (20 μL)”, “Buffer” for “Buffer (2 mL)”
as §2, with “Buffer” for “Buffer (500 μL)”, “CD14^+” for “CD8^+”, “diluted” for “diluted to 15 mL”, “2×10^6” for “1×10^6”, “plate” for “plate in a volume of 100 μL/well”, “hours. […] The cells were then stimulated with LPS (final concentration: 500 ng/mL) for 6 hours at 37° C. and an ATP solution (final concentration: 5 mM) was added thereto, and the 96-well plate was further allowed to stand in a CO2 incubator for 2 hours to collect the culture supernatants.” for “hours.”
The collected culture supernatants were quantified for IL-18 using Human IL-18 DuoSet ELISA.

Experiment [4] concerns IFN-γ production. Briefly: CRS toxicity evaluation system using CAR-T cells: IFN-γ. The class given is cell-based. The settings on record: Homo sapiens, Monocyte, target cells and monocytes, 72 hours. How it is done: The supernatants were collected at 72 hours after the initiation of culture, and various cytokines in each supernatant were measured by FACS multiplex assay.

The test system of experiment [5] is MCP-1 production from CD14^+ cells. Briefly: LPS stimulation-induced MCP-1 production in CD14^+ cells. The format is cell-based. The settings on record: Homo sapiens, 72 h, LPS 3 ng/mL, 3 days. How it is done:
as §1, with “suspended again” for “suspended”, “followed by counting” for “a portion of which was then mixed with a trypan blue solution to count”, “Buffer” for “Buffer in a volume of 80 μL per 1×10^7 cells”, “CD14” for “CD8”, “MicroBeads” for “MicroBeads (20 μL)”, “Buffer” for “Buffer (2 mL)”
MACS Buffer was added to the tube, and the cells were suspended and then applied to a separatory column to separate CD14^+ cells. The CD14^+ cell fraction was diluted with the medium and then centrifuged (at room temperature at 300 g for 10 minutes). The supernatant was removed and the cells were suspended in the medium (1 mL), followed by counting the number of viable cells. The cell suspension was adjusted with the medium to 2.4×10^5 or 3×10^5 cells/mL and seeded in a 96-well plate (2.4×10^4 cells/well), which was then allowed to stand in a CO2 incubator for 1 to 2 hours.
The collected culture supernatants were quantified for MCP-1 using Human CCL2/MCP-1 DuoSet ELISA.

Experiment [6] deals with IFN-γ production from CD8^+ T cells. Briefly: T-cell stimulation bead-induced IFN-γ production in CD8^+ T cells. The class given is cell-based, human. The settings on record: CD3/CD28 stimulation, 3 days. Here is the method: as §1, §2
The collected culture supernatants were quantified for IFN-γ using Human IFN-γ DuoSet ELISA.

The test system of experiment [7] is acute myeloid leukemia (AML) cell lines. The settings on record: in vitro system; cited from earlier work.

Where a name gives a salt, the structure may show the parent alone.

In the case of `C[C@]12C=CC(=O)C=C1CC[C@@H]1[C@@H]2[C@@H](O)C[C@@]2(C)[C@H]1CC[C@]2(O)C(=O)CO` [PSL, Prednisolone], the 50% inhibitory concentration (IC50) (in general, the concentration at which inhibition is half-maximal) in experiment [1] was greater than 30000 nM; in experiment [2], 35 nM; in experiment [2] (Homo sapiens, T-cell, 72 h) it was 34.8 nM; in experiment [3], greater than 30000 nM; in experiment [4], 880 nM; in experiment [5] it was 6600 nM. The IC50 in experiment [6] came to 149 nM; in experiment [6] (Homo sapiens, T-cell, 72 h), 149 nM. Also, the “suppressive effect on IL-1β production” value in experiment [1] (LPS) is given as “no suppressive effect”. Besides, the “suppressive effect on IL-18 production” value in experiment [3] (LPS-pretreated CD14^+ cells, ATP) is given as “no suppressive effect”.

Consider `CCOC(=O)[C@H](Cc1ccccc1)NC(=O)c1cc(Cl)c(OCCN2CCN(C)CC2)c(Cl)c1O` [JTE-607, (−)-ethyl N-{3,5-dichloro-2-hydroxy-4-[2-(4-methylpiperazin-1-yl)ethoxy]benzoyl}-L-phenylalaninate dihydrochloride], for which, in experiment [7], the “autoproliferation of AML cell lines” value is recorded as “selectively suppress the autoproliferation”. The IC50 in experiment [1] was found to be 3.45 nM; in experiment [2] (dihydrochloride) it was 231 nM; in experiment [2] (Homo sapiens, T-cell, 72 h), 231 nM; in experiment [3] it was 2.4 nM; in experiment [4], 598 nM; in experiment [5], 21.3 nM. The compound also returned an IC50 in experiment [6] (Homo sapiens, T-cell, 72 h) greater than 300 nM.
